This is an account of results in patent publication US8541588B2, “Sulfonamide derivatives” (Pfizer Limited, priority 2009, dated 2013).

The target of the first test is T1, Nav1.7 (or SCN9A) channel; HEK cells stably transfected with hSCN9A (Homo sapiens, UniProt Q15858).
T1 construct: expressed in transfected cells
T1 sequence (Q15858 whole entry): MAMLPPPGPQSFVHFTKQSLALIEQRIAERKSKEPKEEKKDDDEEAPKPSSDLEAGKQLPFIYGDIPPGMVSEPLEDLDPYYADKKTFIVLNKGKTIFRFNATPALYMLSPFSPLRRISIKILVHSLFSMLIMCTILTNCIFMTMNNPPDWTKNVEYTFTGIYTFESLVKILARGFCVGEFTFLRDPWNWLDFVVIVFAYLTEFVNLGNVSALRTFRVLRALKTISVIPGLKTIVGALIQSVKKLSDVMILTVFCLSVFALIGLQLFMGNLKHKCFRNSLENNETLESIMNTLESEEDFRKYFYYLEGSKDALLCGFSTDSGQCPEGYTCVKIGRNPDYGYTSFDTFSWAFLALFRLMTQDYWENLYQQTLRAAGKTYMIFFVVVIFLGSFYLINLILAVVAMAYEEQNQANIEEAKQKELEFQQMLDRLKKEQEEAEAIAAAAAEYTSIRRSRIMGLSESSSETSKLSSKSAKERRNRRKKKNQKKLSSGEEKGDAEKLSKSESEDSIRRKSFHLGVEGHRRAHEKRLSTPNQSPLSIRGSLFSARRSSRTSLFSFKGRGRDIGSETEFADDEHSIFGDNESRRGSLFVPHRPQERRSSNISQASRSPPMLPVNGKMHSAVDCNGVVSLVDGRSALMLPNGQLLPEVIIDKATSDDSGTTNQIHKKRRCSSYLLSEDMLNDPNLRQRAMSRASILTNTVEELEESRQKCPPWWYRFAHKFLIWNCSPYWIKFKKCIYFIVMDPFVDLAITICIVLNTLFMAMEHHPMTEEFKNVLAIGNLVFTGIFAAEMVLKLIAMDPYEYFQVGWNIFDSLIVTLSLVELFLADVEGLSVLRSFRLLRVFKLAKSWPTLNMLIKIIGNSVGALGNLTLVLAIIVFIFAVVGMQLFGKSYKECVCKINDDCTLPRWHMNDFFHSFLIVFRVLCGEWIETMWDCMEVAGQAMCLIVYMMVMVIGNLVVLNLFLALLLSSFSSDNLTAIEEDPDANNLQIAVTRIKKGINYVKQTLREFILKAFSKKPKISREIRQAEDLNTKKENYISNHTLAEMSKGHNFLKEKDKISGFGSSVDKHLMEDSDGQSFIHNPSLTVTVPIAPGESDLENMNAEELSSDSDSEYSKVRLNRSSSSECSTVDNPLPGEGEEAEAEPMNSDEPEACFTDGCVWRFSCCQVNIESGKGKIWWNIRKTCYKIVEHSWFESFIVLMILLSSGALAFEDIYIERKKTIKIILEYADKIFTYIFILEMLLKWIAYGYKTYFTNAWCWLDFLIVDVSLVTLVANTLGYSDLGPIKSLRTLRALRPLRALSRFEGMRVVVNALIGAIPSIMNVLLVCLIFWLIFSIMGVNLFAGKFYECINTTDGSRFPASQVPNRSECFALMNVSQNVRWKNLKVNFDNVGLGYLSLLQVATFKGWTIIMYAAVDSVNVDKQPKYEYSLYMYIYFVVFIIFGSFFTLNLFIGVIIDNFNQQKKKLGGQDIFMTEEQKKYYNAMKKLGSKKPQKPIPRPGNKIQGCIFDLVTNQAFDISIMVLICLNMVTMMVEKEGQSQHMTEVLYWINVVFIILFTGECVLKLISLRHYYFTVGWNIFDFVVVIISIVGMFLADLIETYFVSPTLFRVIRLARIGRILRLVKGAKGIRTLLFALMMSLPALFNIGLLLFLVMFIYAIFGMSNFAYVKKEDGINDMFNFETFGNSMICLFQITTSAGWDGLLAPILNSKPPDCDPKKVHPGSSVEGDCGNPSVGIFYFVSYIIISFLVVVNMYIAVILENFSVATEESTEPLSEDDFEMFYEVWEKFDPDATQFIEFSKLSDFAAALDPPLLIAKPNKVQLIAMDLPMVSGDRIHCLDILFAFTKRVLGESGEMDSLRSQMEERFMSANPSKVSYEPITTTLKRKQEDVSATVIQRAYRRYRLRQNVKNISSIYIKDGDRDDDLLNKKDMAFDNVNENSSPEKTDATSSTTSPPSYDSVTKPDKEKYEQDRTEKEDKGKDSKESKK
In words: Nav1.7 block, PatchXpress 7000 automated whole-cell voltage clamp, estimated IC50 (EIC50). The conditions noted are these: PatchXpress platform; hSCN9A HEK cells held at V1/2 of inactivation; estimated IC50. It counts as cell-based.
Regarding `N#Cc1cc(S(=O)(=O)Nc2ncns2)ccc1Oc1ccccc1Oc1ccc(F)cc1` [Example 77, 3-cyano-4-[2-(4-fluorophenoxy)phenoxy]-N-1,2,4-thiadiazol-5-ylbenzenesulfonamide], the half-maximal inhibitory concentration (IC50) was 360 nM.
For `O=S(=O)(Nc1nccs1)c1ccc(Oc2ccc(-c3cc(C(F)(F)F)n[nH]3)cc2)c(F)c1` [Example 246, 3-fluoro-N-(thiazol-2-yl)-4-(4-(3-(trifluoromethyl)-1H-pyrazol-5-yl)phenoxy)benzenesulfonamide], the IC50 was 3760 nM.
Same read-out and setting: then `N#Cc1cc(S(=O)(=O)Nc2ncns2)ccc1Oc1cc(C2CC2)nn1-c1cc(F)ccc1F` [Example 87, 3-cyano-4-{[3-cyclopropyl-1-(2,5-difluorophenyl)-1H-pyrazol-5-yl]oxy}-N-1,2,4-thiadiazol-5-ylbenzenesulfonamide], with 1600 nM.
The same measure, in the same setting: to `O=S(=O)(Nc1cscn1)c1ccc(Oc2ccccc2-c2ccccc2)c(F)c1` [Example 271, 4-(biphenyl-2-yloxy)-3-fluoro-N-thiazol-4-yl-benzenesulfonamide] belongs 1150 nM; to `COc1ccc(-c2ccccc2Oc2ccc(S(=O)(=O)Nc3ncns3)cc2C#N)cc1F` [Example 48, 3-cyano-4-[(3′-fluoro-4′-methoxybiphenyl-2-yl)oxy]-N-1,2,4-thiadiazol-5-ylbenzenesulfonamide], 900 nM; to `COc1ccccc1-c1ccccc1Oc1ccc(S(=O)(=O)Nc2nccs2)c(F)c1` [Example 208, 2-fluoro-4-(2′-methoxybiphenyl-2-yloxy)-N-(thiazol-2-yl)benzenesulfonamide], 130 nM.

The same test, now with this note: estimated IC50; hSCN9A HEK cells, PatchXpress platform; Examples 283-814.
As for `N#Cc1cc(S(=O)(=O)Nc2nccs2)ccc1Oc1ccc(N2CCNC2=O)cc1` [Example 486, 3-cyano-4-[4-(2-oxoimidazolidin-1-yl)phenoxy]-N-1,3-thiazol-2-ylbenzenesulfonamide], the concentration for half-maximal inhibition (IC50) is more than 1000 nM.
On the same count and under the same terms, to `N#Cc1cc(S(=O)(=O)Nc2ncns2)ccc1Oc1ccc(Cl)cc1C1CCNCC1` [Example 505, 4-(4-chloro-2-piperidin-4-ylphenoxy)-3-cyano-N-1,2,4-thiadiazol-5-ylbenzenesulfonamide] belongs 50 nM; to `CC(C)(C)n1nccc1-c1cc(Cl)ccc1Oc1ccc(S(=O)(=O)Nc2ncns2)cc1Cl` [Example 474, 4-[2-(1-tert-butyl-1H-pyrazol-5-yl)-4-chlorophenoxy]-3-chloro-N-1,2,4-thiadiazol-5-ylbenzenesulfonamide], 44 nM; to `N#Cc1ccnc(NS(=O)(=O)c2ccc(Oc3ccccc3-c3ccccc3)c(C#N)c2)n1` [Example 433, 4-(biphenyl-2-yloxy)-3-cyano-N-(4-cyanopyrimidin-2-yl)benzenesulfonamide], 15000 nM.
Same read-out and setting: then `Nc1cc(-c2cc(Cl)ccc2Oc2cc(F)c(S(=O)(=O)Nc3nncs3)cc2Cl)ccn1` [Example 814, 4-[2-(2-aminopyridin-4-yl)-4-chlorophenoxy]-5-chloro-2-fluoro-N-1,3,4-thiadiazol-2-ylbenzenesulfonamide], with 6.2 nM.
With `Cc1ccccc1-c1cc(Cl)ccc1Oc1ccc(S(=O)(=O)Nc2nccs2)cc1C#N` [Example 692, 4-[(5-chloro-2′-methylbiphenyl-2-yl)oxy]-3-cyano-N-1,3-thiazol-2-ylbenzenesulfonamide], the IC50 is 110 nM.
Still for that read-out and setting: then “4-[2-fluoro-4-(3-methoxy-1-methyl-1H-pyrazol-5-yl)phenoxy]-N-1,3-thiazol-2-ylbenzenesulfonamide [Example 435]”, with 2700 nM; and `Cn1nccc1-c1cc(Cl)ccc1Oc1ccc(S(=O)(=O)Nc2ccncn2)cc1F` [Example 670, 4-[4-Chloro-2-(1-methyl-1H-pyrazol-5-yl)phenoxy]-3-fluoro-N-pyrimidin-4-ylbenzenesulfonamide], with 350 nM.
As for `N#Cc1cc(S(=O)(=O)Nc2cnc(Cl)nc2)ccc1Oc1ccccc1-c1ccccc1` [Example 426, 4-(biphenyl-2-yloxy)-N-(2-chloropyrimidin-5-yl)-3-cyanobenzenesulfonamide], the IC50 was 36000 nM.
On the same count and under the same terms, to `Cc1scnc1NS(=O)(=O)c1cc(Cl)c(Oc2ccc(F)cc2-c2ccnn2C)cc1F` [Example 630, 5-chloro-2-fluoro-4-(4-fluoro-2-(1-methyl-1H-pyrazol-5-yl)phenoxy)-N-(5-methylthiazol-4-yl)benzenesulfonamide] belongs more than 1000 nM.
The same measure, in the same setting: to `Cn1nccc1-c1ccccc1Oc1ccc(S(=O)(=O)Nc2cscn2)cc1I` [Example 629, 3-iodo-4-[2-(1-methyl-1H-pyrazol-5-yl)phenoxy]-N-1,3-thiazol-4-ylbenzenesulfonamide] belongs 240 nM; to `CCn1nc(C(F)(F)F)cc1-c1ccc(Oc2ccc(S(=O)(=O)Nc3nccs3)cc2C#N)c(F)c1` [Example 328, 3-cyano-4-{4-[1-ethyl-3-(trifluoromethyl)-1H-pyrazol-5-yl]-2-fluorophenoxy}-N-1,3-thiazol-2-ylbenzenesulfonamide], 81 nM; to `O=S(=O)(Nc1ncns1)c1cc(Cl)c(Oc2ccc(F)cc2-c2cn[nH]c2)cc1F` [Example 755, 5-chloro-2-fluoro-4-[4-fluoro-2-(1H-pyrazol-4-yl)phenoxy]-N-1,2,4-thiadiazol-5-ylbenzenesulfonamide], 2.4 nM.
On the same count and under the same terms, to `Cc1cccnc1-c1ccc(Oc2ccc(S(=O)(=O)Nc3nccs3)cc2C#N)cc1` [Example 455, 3-cyano-4-[4-(3-methylpyridin-2-yl)phenoxy]-N-1,3-thiazol-2-ylbenzenesulfonamide] belongs 2300 nM.

The test is the same for the next values; noted with them: estimated IC50; hSCN9A HEK cells, PatchXpress platform; Examples 815-1040.
For `Cc1nnc(NS(=O)(=O)c2ccc(Oc3ccc(Cl)cc3-c3ccnn3C)c(C#N)c2)s1` [Example 888, 4-[4-chloro-2-(1-methyl-1H-pyrazol-5-yl)phenoxy]-3-cyano-N-(5-methyl-1,3,4-thiadiazol-2-yl)benzenesulfonamide], the IC50 was 920 nM.
Still for that read-out and setting: then `Nc1cc(-c2cc(Cl)ccc2Oc2cc(F)c(S(=O)(=O)Nc3cccnn3)cc2Cl)ccn1` [Example 1031, 4-[2-(2-aminopyridin-4-yl)-4-chlorophenoxy]-5-chloro-2-fluoro-N-pyridazin-3-ylbenzenesulfonamide], with 29 nM.
Same read-out and setting: to `N#Cc1cc(S(=O)(=O)Nc2ncns2)ccc1Oc1ccc(Cl)cc1-c1cccc(C(=O)N2CCC2)c1` [Example 854, 4-{[3′-(azetidin-1-ylcarbonyl)-5-chlorobiphenyl-2-yl]oxy}-3-cyano-N-1,2,4-thiadiazol-5-ylbenzenesulfonamide] belongs 6.4 nM; to `O=S(=O)(Nc1nncs1)c1cc(Cl)c(Oc2ccc(Cl)cc2-c2cccc(CN3CCC3)n2)cc1F` [Example 831, 4-{2-[6-(azetidin-1-ylmethyl)pyridin-2-yl]-4-chlorophenoxy}-5-chloro-2-fluoro-N-1,3,4-thiadiazol-2-ylbenzenesulfonamide], 63 nM.
Same read-out and setting: then `O=S(=O)(Nc1nncs1)c1cc(F)c(Oc2ccc(C(F)(F)F)cc2-c2ccnnc2)cc1F` [Example 917, 2,5-difluoro-4-[2-pyridazin-4-yl-4-(trifluoromethyl)phenoxy]-N-1,3,4-thiadiazol-2-ylbenzenesulfonamide], with 240 nM; and `O=S(=O)(Nc1nncs1)c1cc(Cl)c(Oc2ccc(OC(F)(F)F)cc2-c2ccnnc2)cc1F` [Example 932, 5-chloro-2-fluoro-4-[2-pyridazin-4-yl-4-(trifluoromethoxy)phenoxy]-N-1,3,4-thiadiazol-2-ylbenzenesulfonamide], with 75 nM.

The IC50 is the point on the concentration scale where inhibition reaches its midpoint.
